# From US20050004134A1, “Thiazole derivative and pharmaceutical use thereof” (priority 2001, published 2005)
row,SMILES,melting point [°C]
1,COCCNCC(=O)Nc1nc(-c2ccccc2)c(-c2ccc(=O)n(C(C)C)n2)s1.Cl,252 to 253
2,CC(C)n1nc(-c2sc(NC(=O)CN3CCN(C)CC3)nc2-c2ccccc2)ccc1=O.Cl.Cl,244 to 246
3,CC(C)n1nc(-c2sc(NC(=O)CN3CCOCC3)nc2-c2ccccc2)ccc1=O.Cl,252 to 253
4,CC(C)n1nc(-c2sc(NC(=O)CN3CCCC3)nc2-c2ccccc2)ccc1=O.Cl,> 250
5,CC(C)n1nc(-c2sc(NC(=O)CN(C)C)nc2-c2ccccc2)ccc1=O.Cl,232 to 234
6,CC(C)n1nc(-c2sc(NC(=O)CNCCCN3CCCC3=O)nc2-c2ccccc2)ccc1=O.Cl,207 to 209
7,CC(O)CNCC(=O)Nc1nc(-c2ccccc2)c(-c2ccc(=O)n(C(C)C)n2)s1.Cl (stereo not drawn),209 to 211
8,CC(C)n1nc(-c2sc(NC(=O)CNCC(O)c3ccccc3)nc2-c2ccccc2)ccc1=O.Cl (stereo not drawn),218 to 220
9,CC(C)n1nc(-c2sc(NC(=O)CNCCCO)nc2-c2ccccc2)ccc1=O.Cl,136 to 142
10,CC(C)n1nc(-c2sc(NC(=O)CNCCCN3CCOCC3)nc2-c2ccccc2)ccc1=O.Cl.Cl,211 to 213
11,CC(C)n1nc(-c2sc(NC(=O)CNCCN(C)C)nc2-c2ccccc2)ccc1=O.Cl.Cl,136 to 142
12,CC(C)n1nc(-c2sc(NC(=O)CCN3CCCC3)nc2-c2ccccc2)ccc1=O.Cl,224 to 225
13,CCN(CC)CCNCC(=O)Nc1nc(-c2ccccc2)c(-c2ccc(=O)n(C(C)C)n2)s1.Cl.Cl,157 to 159
14,CC(C)n1nc(-c2sc(NC(=O)CNCCN3CCOCC3)nc2-c2ccccc2)ccc1=O.Cl.Cl,250 to 252
15,CC(C)NCC(=O)Nc1nc(-c2ccccc2)c(-c2ccc(=O)n(C(C)C)n2)s1.Cl,> 250
16,CC(C)n1nc(-c2sc(NC(=O)CNC3CC3)nc2-c2ccccc2)ccc1=O.Cl,123 to 125
17,COCCCNCC(=O)Nc1nc(-c2ccccc2)c(-c2ccc(=O)n(C(C)C)n2)s1.Cl,> 250
18,CCOCCNCC(=O)Nc1nc(-c2ccccc2)c(-c2ccc(=O)n(C(C)C)n2)s1.Cl,252 to 253
19,CC(C)n1nc(-c2sc(NC(=O)CNCCN3CCCCC3)nc2-c2ccccc2)ccc1=O.Cl.Cl,> 250
20,CC(C)n1nc(-c2sc(NCCN3CCOCC3)nc2-c2ccccc2)ccc1=O.Cl.Cl,140 to 143
21,CC(C)n1nc(-c2sc(NCCCN3CCOCC3)nc2-c2ccccc2)ccc1=O.Cl.Cl,150 to 153
22,Br.CNc1nc(-c2ccccc2)c(-c2ccc(=O)n(C(C)C)n2)s1,226 to 228
23,Br.CC(C)n1nc(-c2sc(Nc3ccccc3)nc2-c2ccccc2)ccc1=O,127 to 129
24,Br.CCCCNc1nc(-c2ccccc2)c(-c2ccc(=O)n(C(C)C)n2)s1,204 to 205
25,CC(C)n1nc(-c2sc(NC(=O)Oc3ccccc3)nc2-c2ccccc2)ccc1=O,205 to 207
26,"CC(C)n1nc(-c2sc(N)nc2-c2ccccc2)ccc1=O [Example 1, 6-(2-amino-4-phenyl-1,3-thiazol-5-yl)-2-isopropyl-3(2H)-pyridazinone]",> 250

row,SMILES,melting point [°C]
1,"CC(C)n1nc(-c2sc(NC(=O)c3ccccc3)nc2-c2ccccc2)ccc1=O [Example 2, N-[5-(1-isopropyl-6-oxo-1,6-dihydro-3-pyridazinyl)-4-phenyl-1,3-thiazol-2-yl]-benzamide]",126 to 129
2,"CC(C)n1nc(-c2sc(NC(=O)Cc3ccccc3)nc2-c2ccccc2)ccc1=O [Example 4, N-[5-(1-Isopropyl-6-oxo-1,6-dihydro-3-pyridazinyl)-4-phenyl-1,3-thiazol-2-yl]-2-phenylacetamide]",250 to 252
3,"CC(C)n1nc(-c2sc(NC(=O)C(C)(C)C)nc2-c2ccccc2)ccc1=O [Example 5, N-[5-(1-Isopropyl-6-oxo-1,6-dihydro-3-pyridazinyl)-4-phenyl-1,3-thiazol-2-yl]-2,2-dimethylpropanamide]",224 to 226
4,"CC(=O)Nc1nc(-c2ccccc2)c(-c2ccc(=O)n(C(C)C)n2)s1 [Example 6, N-[5-(1-isopropyl-6-oxo-1,6-dihydro-3-pyridazinyl)-4-phenyl-1,3-thiazol-2-yl]-acetamide]",202 to 204
5,"CC(C)n1nc(-c2sc(NC(=O)C3CCCCC3)nc2-c2ccccc2)ccc1=O [Example 7, N-[5-(1-Isopropyl-6-oxo-1,6-dihydro-3-pyridazinyl)-4-phenyl-1,3-thiazol-2-yl]cyclohexanecarboxamide]",234 to 236
6,"CC(C)n1nc(-c2sc(NC(=O)COc3ccccc3)nc2-c2ccccc2)ccc1=O [Example 8, N-[5-(1-Isopropyl-6-oxo-1,6-dihydro-3-pyridazinyl)-4-phenyl-1,3-thiazol-2-yl]-2-phenoxyacetamide]",243 to 244
7,"CC(C)n1nc(-c2sc(NC(=O)NCc3ccccc3)nc2-c2ccccc2)ccc1=O [Example 11, N-benzyl-N′-[5-(1-isopropyl-6-oxo-1,6-dihydro-3-pyridazinyl)-4-phenyl-1,3-thiazol-2-yl]urea]",200 to 201
8,"Cc1ccc(S(=O)(=O)NC(=O)Nc2nc(-c3ccccc3)c(-c3ccc(=O)n(C(C)C)n3)s2)cc1 [Example 12, N-({[5-(1-Isopropyl-6-oxo-1,6-dihydro-3-pyridazinyl)-4-phenyl-1,3-thiazol-2-yl]amino}carbonyl)-4-methylbenzene-sulfonamide]",172 to 174
9,"CCCCCCNc1nc(-c2ccccc2)c(-c2ccc(=O)n(C(C)C)n2)s1 [Example 14, 6-[2-(hexylamino)-4-phenyl-1,3-thiazol-5-yl]-2-isopropyl-3(2H)-pyridazinone]",90 to 92
10,"CC(C)n1nc(-c2sc(Nc3cccnc3)nc2-c2ccccc2)ccc1=O [Example 16, 2-Isopropyl-6-[4-phenyl-2-(3-pyridinylamino)-1,3-thiazol-5-yl]-3(2H)-pyridazinone]",226 to 228
11,"CC(C)n1nc(-c2sc(NCc3ccccn3)nc2-c2ccccc2)ccc1=O [Example 20, 2-Isopropyl-6-{4-phenyl-2-[(2-pyridinylmethyl)amino]-1,3-thiazol-5-yl}-3(2H)-pyridazinone]",182 to 184
12,"CC(=O)N(C)c1nc(-c2ccccc2)c(-c2ccc(=O)n(C(C)C)n2)s1 [Example 22, N-[5-(1-isopropyl-6-oxo-1,6-dihydro-3-pyridazinyl)-4-phenyl-1,3-thiazol-2-yl]-N-methylacetamide]",165 to 167
13,"CC(C)n1nc(-c2sc(N(C)C)nc2-c2ccccc2)ccc1=O [Example 23, 6-[2-(dimethylamino)-4-phenyl-1,3-thiazol-5-yl]-2-isopropyl-3(2H)-pyridazinone]",158 to 160
14,"CC(C)n1nc(-c2sc(NC(=O)c3ccccn3)nc2-c2ccccc2)ccc1=O [Example 26, N-[5-(1-Isopropyl-6-oxo-1,6-dihydro-3-pyridazinyl)-4-phenyl-1,3-thiazol-2-yl]-2-pyridinecarboxamide]",245 to 246
15,"CC(C)n1nc(-c2sc(NC(=O)c3ccc(CN4CCOCC4)cc3)nc2-c2ccccc2)ccc1=O [Example 27, N-[5-(1-Isopropyl-6-oxo-1,6-dihydro-3-pyridazinyl)-4-phenyl-1,3-thiazol-2-yl]-4-(4-morpholinylmethyl)benzamide]",222 to 224
16,"CC(C)n1nc(-c2sc(NC(=O)c3ccc(CN(C)C)cc3)nc2-c2ccccc2)ccc1=O [Example 28, 4-[(Dimethylamino)methyl]-N-[5-(1-isopropyl-6-oxo-1,6-dihydro-3-pyridazinyl)-4-phenyl-1,3-thiazol-2-yl]benzamide]",246 to 248
17,"CC(C)n1nc(-c2sc(NC(=O)c3ccc4ccccc4c3)nc2-c2ccccc2)ccc1=O [Example 30, N-[5-(1-Isopropyl-6-oxo-1,6-dihydro-3-pyridazinyl)-4-phenyl-1,3-thiazol-2-yl]-2-naphthamide]",227 to 229
18,"CC(C)n1nc(-c2sc(NC(=O)c3cccc4ccccc34)nc2-c2ccccc2)ccc1=O [Example 31, N-[5-(1-Isopropyl-6-oxo-1,6-dihydro-3-pyridazinyl)-4-phenyl-1,3-thiazol-2-yl]-1-naphthamide]",223 to 224
19,"CC(C)n1nc(-c2sc(NC(=O)N3CCOCC3)nc2-c2ccccc2)ccc1=O [Example 32, N-[5-(1-Isopropyl-6-oxo-1,6-dihydro-3-pyridazinyl)-4-phenyl-1,3-thiazol-2-yl]-4-morpholinecarboxamide]",231 to 232
20,"CC(C)n1nc(-c2sc(NC(=O)C3CC3)nc2-c2ccccc2)ccc1=O [Example 33, N-[5-(1-Isopropyl-6-oxo-1,6-dihydro-3-pyridazinyl)-4-phenyl-1,3-thiazol-2-yl]cyclopropanecarboxamide]",226 to 227
21,"Cc1ccccc1C(=O)Nc1nc(-c2ccccc2)c(-c2ccc(=O)n(C(C)C)n2)s1 [Example 34, N-[5-(1-Isopropyl-6-oxo-1,6-dihydro-3-pyridazinyl)-4-phenyl-1,3-thiazol-2-yl]-2-methylbenzamide]",221 to 222
22,"CC(C)n1nc(-c2sc(NC(=O)c3cccc(Cl)c3)nc2-c2ccccc2)ccc1=O [Example 35, 3-Chloro-N-[5-(1-isopropyl-6-oxo-1,6-dihydro-3-pyridazinyl)-4-phenyl-1,3-thiazol-2-yl]benzamide]",173 to 174
23,"CC(C)n1nc(-c2sc(NC(=O)c3cccc(F)c3)nc2-c2ccccc2)ccc1=O [Example 36, 3-Fluoro-N-[5-(1-isopropyl-6-oxo-1,6-dihydro-3-pyridazinyl)-4-phenyl-1,3-thiazol-2-yl]benzamide]",183 to 184
24,"CC(C)n1nc(-c2sc(NC(=O)c3ccccc3F)nc2-c2ccccc2)ccc1=O [Example 37, 2-Fluoro-N-[5-(1-isopropyl-6-oxo-1,6-dihydro-3-pyridazinyl)-4-phenyl-1,3-thiazol-2-yl]benzamide]",251 to 252
25,"CC(C)n1nc(-c2sc(NC(=O)c3cccc(C(F)(F)F)c3)nc2-c2ccccc2)ccc1=O [Example 38, N-[5-(1-Isopropyl-6-oxo-1,6-dihydro-3-pyridazinyl)-4-phenyl-1,3-thiazol-2-yl]-3-(trifluoromethyl)benzamide]",237 to 238
